Read-outs that look alike come from different tables or passages of the source.
Experiments:
HT-29 cells [1] = experiment: Cell cycle distribution by flow cytometry; type: cell-based, human; conditions: for Cell Cycle Distribution G0/G1 / Cell Cycle Distribution G2/M / Cell Cycle Distribution S: 24 h
Procedure: (§1) The human cancer cells (2×10^5) were cultured in 60-mm Petri dishes and incubated for 24 h. After treated with test compounds for 24 h, the cells were then harvested, washed with PBS resuspended in 200 μL of PBS, and fixed in 800 μL of iced 100% ethanol at −20° C. After being left to stand overnight, the cell pellets were collected by centrifugation, resuspended in 1 mL of hypotonic buffer (0.5% Triton X-100 in PBS and 0.5 μg/mL RNase) and incubated at 37° C. for 30 min. Next, 1 mL of propidium iodide solution (50 μg/mL) was added, and the mixture was allowed to stand on ice for 30 min. Fluorescence emitted from the propidium iodide-DNA complex was quantitated after excitation of the fluorescent dye by FACScan cytometry (Becton Dickinson, San Jose, Calif.).
(§2) Compounds A-K were evaluated in terms of their effects in arresting cell cycle progression by observing cell cycle phase distribution in cells treated with the compounds. Cells were treated with 5, 10, 25, 50, and 100 μM of one of compound A-K or DMSO (control) for 24 h and subjected to flow cytometric analysis after staining their DNA, as described above.
Similar cell cycle phase distribution studies were performed in AGS, COLO205, and HT-29 cells in response to individual PMFs, with results reported in Tables 11, 12 and 13, respectively.

HL-60 cells [2] = experiment: Cell cycle distribution by flow cytometry; type: cell-based, human; conditions: for Cell Cycle Distribution G0/G1 / Cell Cycle Distribution G2/M / Cell Cycle Distribution S: 24 h, Table 10
Procedure: as §1
The effects of the hydrolyzed PMF-enriched compositions, nobiletin and 70% PMF OPE on cell cycle distribution were studied, following the procedures described in Section 8.4. Results for cell cycle distribution in HL-60 cells, COLO205 cells and AGS cells are provided in Table 5, Table 6 and Table 7, respectively. […] In HL-60 cells, G2/M arrest predominated in cells treated with 6N PMF concentrations ≧5 μM and with 1N PMF concentrations ≧25 μM.
as §2

[3] = system: LPS-induced nitrite production in RAW 264.7 macrophages; experiment: Nitrite assay (Griess reaction); type: cell-based, mouse; conditions: 100 ng/ml LPS, PMF 30 μM, 24 h, FIG. 3
Procedure: Compounds or compositions were tested for anti-inflammatory effects by monitoring nitrite production in LPS-activated RAW264.7 cells. After treating the cells with LPS or LPS and test substance, supernatants were harvested and the amount of nitrite, an indicator of NO synthesis, was measured by use of the Griess reaction. Briefly, supernatants (100 μl) were mixed with the same volume of Griess reagent (1% sulphanilamide in 5% phosphoric acid and 0.1% naphthylethylenediamine dihydrochloride in water) in duplicate on 96-well plates. After incubation at room temperature for 10 min, absorbance at 570 nm was measured with a ELISA reader (Thermo Labsystems Multiskan Ascent, Finland).
The anti-inflammatory effects of compounds A-K were tested by measuring nitrite production in LPS-activated RAW 264.7 macrophages, as described in Section 8.4 above. Macrophages were treated with 100 ng/ml LPS alone or LPS and PMF (10 or 30 μM) for 24 h. At the end of incubation time, 100 μl of the culture medium was collected for the nitrite assay.

HT-29 cells [4] = experiment: Apoptotic ratio by propidium iodide flow cytometry (AC50); type: cell-based, human; conditions: read-out: Apoptosis-inducing AC50
Procedure: as §1
(§3) The PMF compounds were assayed in vitro for cell growth inhibition and for their ability to induce apoptosis in various human cancer cells, including HL-60, AGS, COLO 205, and HT-29 cells, using methods described in Section 8.4 above. Antiproliferative (IC50) and apoptosis-inducing activity (AC50) of PMFs in the HL-60, AGS, COLO 205, and HT-29 cells are reported in Table 9, where *P<0.05, **P<0.01 and ***P<0.001 indicate statistically significant differences from the control group.

COLO205 cells = experiment: as above; type: cell-based, human; conditions: COLO205 cells, read-out: Apoptosis-inducing AC50
Procedure: as §1
(§4) 1 N PMF and 6 N PMF compositions containing hydroxylated PMFs, prepared as described in Section 8.3 above, 70% PMF OPE and 5,6,7,8,3′,4′-hexamethoxyflavone (nobiletin) were tested for antiproliferative activity and apoptosis-inducing activity in HL-60, AGS and COLO205 cells as described in Section 8.4 above. Antiproliferative and apoptosis-inducing activities were derived as IC50 values and AC50, values, respectively, where AC50 is the concentration required for 50% apoptosis.
as §3

HL-60 cells [5] = experiment: as above; type: cell-based, human; conditions: HL-60 cells, read-out: Apoptosis-inducing AC50
Procedure: as §1, §4, §3

AGS cells = experiment: as above; type: cell-based, human; conditions: AGS cells, read-out: Apoptosis-inducing AC50
Procedure: as §1, §4, §3

Row | SMILES | Cell Cycle Distribution G0/G1 (HT-29 cells [1]; 5 μM) | Cell Cycle Distribution G2/M (HT-29 cells [1]; 5 μM) | Cell Cycle Distribution S (HT-29 cells [1]; 5 μM) | Cell Cycle Distribution G0/G1 (HT-29 cells [1]; 10 μM) | Cell Cycle Distribution G2/M (HT-29 cells [1]; 10 μM) | Cell Cycle Distribution S (HT-29 cells [1]; 10 μM) | Cell Cycle Distribution G0/G1 (HT-29 cells [1]; 25 μM) | Cell Cycle Distribution G2/M (HT-29 cells [1]; 25 μM) | Cell Cycle Distribution S (HT-29 cells [1]; 25 μM) | Cell Cycle Distribution G0/G1 (HT-29 cells [1]; 50 μM) | Cell Cycle Distribution G2/M (HT-29 cells [1]; 50 μM) | Cell Cycle Distribution S (HT-29 cells [1]; 50 μM) | Cell Cycle Distribution G0/G1 (HT-29 cells [1]; 100 μM) | Cell Cycle Distribution G2/M (HT-29 cells [1]; 100 μM) | Cell Cycle Distribution S (HT-29 cells [1]; 100 μM) | Cell Cycle Distribution G0/G1 (HL-60 cells [2]; 5 μM) | Cell Cycle Distribution G2/M (HL-60 cells [2]; 5 μM) | Cell Cycle Distribution S (HL-60 cells [2]; 5 μM) | Cell Cycle Distribution G0/G1 (HL-60 cells [2]; 10 μM) | Cell Cycle Distribution G2/M (HL-60 cells [2]; 10 μM) | further results
1 | COc1ccc(-c2oc3c(OC)c(OC)c(OC)c(OC)c3c(=O)c2O)cc1OC [B, 3-hydroxy-5,6,7,8,3′,4-hexamethoxyflavone] | 63.71 ± 1.80 | 6.50 ± 0.37 | 29.8 ± 1.42 | 69.27 ± 3.06 | 5.60 ± 0.85 | 25.14 ± 2.21 | 70.85 ± 1.84 | 4.37 ± 0.62 | 24.8 ± 1.23 | 70.11 ± 1.44 | 10.73 ± 0.47 | 19.18 ± 0.96 | 66.75 ± 1.06 | 8.82 ± 0.26 | 24.45 ± 0.80 | 42.63 ± 0.85 | 9.99 ± 1.70 | 47.38 ± 0.42 | 40.76 ± 0.28 | 0.23 ± 0.42 | Cell Cycle Distribution S (HL-60 cells [2]; 10 μM): 59.01 ± 0.78; Cell Cycle Distribution G0/G1 (HL-60 cells [2]; 25 μM): 47.74 ± 0.71; Cell Cycle Distribution G2/M (HL-60 cells [2]; 25 μM): 0.00 ± 0.64; Cell Cycle Distribution S (HL-60 cells [2]; 25 μM): 52.26 ± 0.64; Cell Cycle Distribution G0/G1 (HL-60 cells [2]; 50 μM): 41.48 ± 0.85; Cell Cycle Distribution G2/M (HL-60 cells [2]; 50 μM): 0.00 ± 0.57; Cell Cycle Distribution S (HL-60 cells [2]; 50 μM): 58.52 ± 0.42; Cell Cycle Distribution G0/G1 (HL-60 cells [2]; 100 μM): 49.63 ± 0.28; Cell Cycle Distribution G2/M (HL-60 cells [2]; 100 μM): 0.51 ± 0.64; Cell Cycle Distribution S (HL-60 cells [2]; 100 μM): 43.86 ± 0.21; Rank of inhibitory potency on LPS-induced nitrite production [3]: H>G>K>C>I>B; AC50 (HT-29 cells [4]): > 100 µM; AC50 (COLO205 cells): > 100 µM; AC50 (HL-60 cells [5]): 56.5 ± 2.39 µM; AC50 (AGS cells): > 100 µM
2 | COc1ccc(-c2cc(=O)c3c(O)c(OC)c(OC)c(OC)c3o2)cc1O [Compound K, 5,3′-dihydroxy-6,7,8,4′-tetramethoxyflavone] | 60.57 ± 0.04 | 9.87 ± 0.78 | 29.71 ± 0.94 | 57.94 ± 0.50 | 11.52 ± 0.27 | 30.55 ± 0.77 | 50.58 ± 1.35 | 12.49 ± 0.09 | 36.94 ± 1.45 | 64.13 ± 0.83 | 13.14 ± 0.47 | 22.73 ± 0.37 | 47.16 ± 2.59 | 36.12 ± 4.37 | 16.72 ± 1.73 | 0.56 ± 0.76 | 35.91 ± 0.11 | 60.54 ± 4.90 | 0.38 ± 0.06 | 54.41 ± 4.77 | G2/M cell cycle arrest, in words (HT-29 cells [1]): strongly potentiated the G2/M cell cycle arrest; G2/M cell cycle arrest, in words (HL-60 cells [2]): strongly potentiated the G2/M cell cycle arrest; Cell Cycle Distribution S (HL-60 cells [2]; 10 μM): 45.22 ± 4.83; Cell Cycle Distribution G0/G1 (HL-60 cells [2]; 25 μM): 0.68 ± 0.42; Cell Cycle Distribution G2/M (HL-60 cells [2]; 25 μM): 49.12 ± 2.64; Cell Cycle Distribution S (HL-60 cells [2]; 25 μM): 50.23 ± 3.08; Cell Cycle Distribution G0/G1 (HL-60 cells [2]; 50 μM): 2.63 ± 2.50; Cell Cycle Distribution G2/M (HL-60 cells [2]; 50 μM): 45.05 ± 0.01; Cell Cycle Distribution S (HL-60 cells [2]; 50 μM): 52.33 ± 2.51; Cell Cycle Distribution G0/G1 (HL-60 cells [2]; 100 μM): 3.18 ± 2.62; Cell Cycle Distribution G2/M (HL-60 cells [2]; 100 μM): 30.61 ± 4.64; Cell Cycle Distribution S (HL-60 cells [2]; 100 μM): 66.21 ± 1.72; Rank of inhibitory potency on LPS-induced nitrite production [3]: H>G>K>C>I>B; AC50 (HT-29 cells [4]; Homo sapiens): > 100 µM; AC50 (COLO205 cells; Homo sapiens, COLO 205): > 100 µM; AC50 (HL-60 cells [5]; Homo sapiens): > 100 µM; AC50 (AGS cells; Homo sapiens): 70 ± 1.4 µM
3 | COc1cc(-c2cc(=O)c3c(OC)c(OC)c(OC)c(OC)c3o2)ccc1O [Compound G, 4′-hydroxy-5,6,7,8,3′-pentamethoxyflavone] | 56.92 ± 1.98 | 12.42 ± 0.44 | 30.66 ± 2.43 | 58.01 ± 1.22 | 9.97 ± 2.10 | 32.03 ± 0.88 | 74.38 ± 1.68 | 6.18 ± 0.06 | 19.55 ± 1.59 | 84.63 ± 1.16 | 7.99 ± 0.01 | 7.39 ± 1.16 | 75.28 ± 1.61 | 14.63 ± 0.21 | 10.11 ± 1.82 | 41.79 ± 0.80 | 4.80 ± 6.73 | 53.41 ± 5.93 | 43.26 ± 2.02 | 12.61 ± 0.11 | Cell cycle arrest, in words (HT-29 cells [1]; 5-100 μM, 24 h exposure): significant accumulation of cells in G1 phase; Cell Cycle Distribution S (HL-60 cells [2]; 10 μM): 44.15 ± 2.12; Cell Cycle Distribution G0/G1 (HL-60 cells [2]; 25 μM): 55.71 ± 0.15; Cell Cycle Distribution G2/M (HL-60 cells [2]; 25 μM): 8.39 ± 0.16; Cell Cycle Distribution S (HL-60 cells [2]; 25 μM): 35.90 ± 0.01; Cell Cycle Distribution G0/G1 (HL-60 cells [2]; 50 μM): 52.35 ± 1.09; Cell Cycle Distribution G2/M (HL-60 cells [2]; 50 μM): 12.18 ± 3.83; Cell Cycle Distribution S (HL-60 cells [2]; 50 μM): 35.48 ± 4.91; Cell Cycle Distribution G0/G1 (HL-60 cells [2]; 100 μM): 65.44 ± 5.42; Cell Cycle Distribution G2/M (HL-60 cells [2]; 100 μM): 11.21 ± 8.27; Cell Cycle Distribution S (HL-60 cells [2]; 100 μM): 23.35 ± 13.67; Rank of inhibitory potency on LPS-induced nitrite production [3]: H>G>K>C>I>B; AC50 (HT-29 cells [4]; Homo sapiens): > 100 µM; AC50 (COLO205 cells; Homo sapiens, COLO 205): > 100 µM; AC50 (HL-60 cells [5]; Homo sapiens): 87.1 ± 7.83 µM; AC50 (AGS cells; Homo sapiens): > 100 µM
